Experiments:
[1] = in vitro liver microsome metabolic stability, human; format: in vitro ADME; conditions: Human liver microsomes, 37°C
Method: (§1) Preparation of working solutions for test compounds and standards: An appropriate amount of the compound was accurately weighed and dissolved in a corresponding volume of suitable solvent to prepare 1 mM stock solutions of the test compounds and standards. The stock solutions were then diluted with appropriate solvent to obtain 100 µM working solutions of the test compounds, ensuring that the DMSO content in the working solutions remained below 10%.
(§2) The internal standard compound testosterone (or tolbutamide) and its corresponding solvent, internal standard concentration (200 ng/mL), were selected based on the properties of the test compound.
(§3) • Solution A: 0.1 mol/L K2HPO4 (2.28 g K2HPO4·3H2O was dissolved in 100 mL of double-distilled water); • Solution B: 0.1 mol/L KH2PO4 (1.36 g KH2PO4 was dissolved in 100 mL of double-distilled water); • 80.2 mL of Solution A and 19.8 mL of Solution B were mixed thoroughly, and the pH was adjusted to 7.4.
(§4) 37.5 mg of glycine was weighed, dissolved in 100 mL of ultrapure water, and adjusted to pH 8.0 with NaOH.
(§5) 1.25 mg of glucose-6-phosphate dehydrogenase (400 U/mg) was weighed (the specific amount weighed was calculated based on the activity of the purchased glucose-6-phosphate dehydrogenase), dissolved in 1 mL of glycine buffer to a concentration of 500 U/mL, aliquoted into 20 µL per tube, and stored at -20°C for future use.
(§6) 7.83 mg of NADP, 0.06 mL of D-glucose-6-phosphate (260 mg/mL), and 10.17 mg of MgCl2·6H2O were precisely weighed.
(§7) The mixture was dissolved in 1 mL of pure water. The cofactor ratio composition: NADP 10 mM, D-glucose-6-phosphate 60 mM, MgCl2·6H2O 50 mM.
(§8) The reaction system (taking a 500 µL system as an example) was composed of the following solution ratios: 416.5 µL phosphate buffer, 5 µL compound working solution, 25 µL liver microsomes, 3.5 µL glucose-6-phosphate dehydrogenase, and 50 µL cofactor solution. The total incubation volume could be adjusted according to experimental requirements.
(§9) 416.5 µL of phosphate buffer was taken, 25 µL of liver microsomes, 3.5 µL of glucose-6-phosphate dehydrogenase, and 50 µL of cofactor solution were added, vortexed twice to mix, and preincubated in a 37°C water bath for 5 minutes. Then, 5 µL of the test compound working solution was added, vortexed twice to mix, each time for 2-3 seconds, and placed in a 37°C water bath to initiate the reaction, with two parallel samples set. At 0.5 min, 1 min, 2 min, 5 min, 15 min, and 30 min after the reaction, 50 µL of the mixture was taken and added to centrifuge tubes containing 200 µL of 0°C pre-cooled internal standard working solution to terminate the reaction, vortexed for 1 minute to mix, and centrifuged at 13,000 rpm for 10 minutes in a 4°C pre-cooled high-speed centrifuge. The supernatant was collected for analysis. After the compound was added and vortex-mixed, 50 µL of the mixture was rapidly transferred to a centrifuge tube containing 200 µL of a pre-cooled (0°C) internal standard working solution to terminate the reaction, vortex-mixed for 1 minute, and used as the relative zero-point sample (relative to the standard group). The sample was then placed into a 37°C water bath to initiate the reaction, and timing was started.
(§10) The sample analysis of the test compound was performed using the liquid chromatography-tandem mass spectrometry (LCMS/MS) method. The semi-quantitative determination was performed using the ratio of the analyte peak area to the internal standard peak area. The retention times of the analyte and internal standard, chromatogram acquisition, and chromatogram integration were processed using Analyst software.
(§11) The in vitro elimination rate constant k of the test compound and the control compound was determined by converting the ratio of the peak area of the test compound to the internal standard into the remaining rate, and T1/2 was then calculated according to the following formula. T1/2 = (Ln2)/(k) = (0.693)/(k) [formula] Table 3. […]

[2] = in vitro liver microsome metabolic stability, rat; format: in vitro ADME; conditions: Rat liver microsomes, 37°C
Method: as §1, §2, §3, §4, §5, §6, §7, §8, §9, §10, §11

[3] = in vitro liver microsome metabolic stability, beagle dog; format: in vitro ADME; conditions: Beagle dog liver microsomes, 37°C
Method: as §1, §2, §3, §4, §5, §6, §7, §8, §9, §10, §11

human CCR6 = target: T1, human CCR6 (Homo sapiens, UniProt P51684); test: human CCR6 calcium flux activity (FLIPR, HEK293 cells stably expressing human CCR6, CCL20 stimulation); format: cell-based; conditions: HEK293 cells stably expressing human CCR6, EC80 human MIP-3 alpha/CCL20; read-out: CCR6 inhibitory activity, IC50
T1 construct: expressed in transfected cells; host or cells: HEK293
T1 sequence (P51684 1-374): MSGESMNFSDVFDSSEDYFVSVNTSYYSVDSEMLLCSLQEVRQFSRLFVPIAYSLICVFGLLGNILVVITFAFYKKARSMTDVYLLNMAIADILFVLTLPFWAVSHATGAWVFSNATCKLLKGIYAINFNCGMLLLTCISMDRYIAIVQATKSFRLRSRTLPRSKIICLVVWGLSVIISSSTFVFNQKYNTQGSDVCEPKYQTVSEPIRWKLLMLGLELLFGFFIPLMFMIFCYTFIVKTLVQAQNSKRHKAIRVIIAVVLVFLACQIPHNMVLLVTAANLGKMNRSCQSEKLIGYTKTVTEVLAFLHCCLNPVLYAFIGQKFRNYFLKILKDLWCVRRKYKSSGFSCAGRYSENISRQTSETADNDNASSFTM
Method: The activity of the compounds was evaluated using HEK293 cells stably expressing human CCR6 via the FLIPR platform. A 384-well black cell culture plate (Greiner, 781946) was used, with a seeding density of 20,000 cells/well, and incubated overnight at 37°C in a 5% CO2 incubator. The culture medium in the cell plate wells was removed, and 20 µL of Fluo-4 Direct™ Calcium Assay Buffer (Invitrogen, F10471, Component C), 20 µL of 2× Fluo-4 Direct™ Calcium Assay Reagent (Invitrogen, F10471, Component A) working solution, and 10 µL of 6× test compound working solution were sequentially added to each well. The cell plate was incubated in a 37 °C, 5% CO2 incubator for 50 min, followed by a 10 min incubation at room temperature. Additionally, a 6×EC80 human MIP-3 alpha/CCL20 (MCE, HY-P7262) working solution was prepared. After the incubation was completed, 10 µL/well of the 6×EC80 human MIP-3 alpha/CCL20 working solution was transferred to the cell plate using a FLIPR instrument, and the fluorescence signal changes at an excitation wavelength of 494 nm and an emission wavelength of 516 nm were recorded over 90 seconds. The difference between the maximum fluorescence signal (RFUMax) and the minimum fluorescence signal (RFUMin) was used as the output signal. The compound inhibition rate and the log value of the compound concentration were calculated, and a four-parameter fitting analysis was performed using GraphPad Prism 8 software to obtain the IC50 value of the test compound.

[4] = in vivo pharmacokinetic study in SD rats; conditions: male, rat, plasma; for AUC(0-t) / Cmax / half-life: 1 mg/kg
Method: 2.2.1 Rats: SD rats, SPF grade, 6 rats per compound, male, body weight range 180-200 g.
2.2.2 Housing conditions: The animals were housed in an SPF-grade animal facility with free access to food and water, three per cage, under a 12/12-hour light/dark cycle (7:00 am/7:00 pm), at a temperature of 23 ± 3°C.
2.2.3 Drug preparation: The compound was precisely weighed, mixed with the required volume of 1% Tween 80, vortexed for 2 min, and then sonicated for 5 min until no visible particles remained. The mixture was subsequently stirred on a magnetic stirrer for 20 min, and the middle layer of the drug solution was collected for administration. For the IV group, the compound was accurately weighed, dissolved in the required volume of 50% PEG400, sonicated for 10 min, and vortexed until clear before administration.
The rats were randomly divided into 2 groups based on body weight, with 3 rats per compound per group. Group 1 was administered a single oral gavage dose (fasted), and Group 2 was administered a single tail vein bolus injection. Blood collection time points: for the po group, blood was collected at 0.167 h, 0.5 h, 1 h, 2 h, 3 h, 4 h, 6 h, and 8 h; for the iv group, blood was collected at 0.033 h, 0.167 h, 0.5 h, 1 h, 2 h, 4 h, 6 h, and 8 h.
After administration to the rats, blood was collected from the orbital venous plexus according to the sampling time points. Approximately 0.2-0.3 mL of blood was collected at each time point into anticoagulant EP tubes (containing 4 µL of EDTA-K2, 375 mg/mL, dried at 50°C). The tubes were slowly inverted up and down three times and stored in an ice box (for no more than 30 minutes). Centrifugation was performed at 4°C at 3000 × g for 10 minutes, and the supernatant was transferred to labeled EP tubes for bioanalytical testing. If testing could not be performed on the same day, the samples were stored at -80°C until analysis (care was taken to avoid multiple freeze/thaw cycles).
The data were analyzed using WinNonlin via a non-compartmental model to obtain PK parameters (Cmax, AUC0-last, AUCinf, T1/2, etc., selected based on different routes of administration). For specific data, please refer to Table 2. Table 2. PK experimental results of compounds in SD rats

Compound	Liver microsome T1-2 (min) Human [1] [min]	Liver microsome T1-2 (min) Rat [2] [min]	Liver microsome T1-2 (min) Beagle dog [3] [min]	also measured
Cc1cccnc1[C@H](Nc1c(Nc2ccnc(C(=O)N(C)C)c2O)c(=O)c1=O)[C@@]1(C)CC(F)(F)CO1 (single isomer, unassigned) [128A]	310.89	78.14	160.31	
Cc1cccnc1C(Nc1c(Nc2ccc(F)c(C(=O)N(C)C)c2O)c(=O)c1=O)[C@]1(C)CC(F)(F)CO1 (stereo partly drawn) [087A, 3-((2-((((S)-4,4-difluoro-2-methyltetrahydrofuran-2-yl)(3-methylpyridin-2-yl)methyl)amino)-3,4-dioxocyclobut-1-en-1-yl)amino)-6-fluoro-2-hydroxy-N,N-dimethylbenzamide]	511.03	120.46	431.98	
Cc1cccnc1C(Nc1c(Nc2ccc(F)c(C(=O)N(C)C)c2O)c(=O)c1=O)[C@@]1(C)CC(F)(F)CO1 (stereo partly drawn) [087B, 3-((2-((((R)-4,4-difluoro-2-methyltetrahydrofuran-2-yl)(3-methylpyridin-2-yl)methyl)amino)-3,4-dioxocyclobut-1-en-1-yl)amino)-6-fluoro-2-hydroxy-N,N-dimethylbenzamide]	369.68	571.31	567.51	
CN(CC(F)(F)F)C(=O)c1nccc(Nc2c(N[C@@H](c3ccc(F)cn3)C3(C)CCCC3)c(=O)c2=O)c1O [compound 070, (R)-4-((2-(((5-fluoropyridin-2-yl)(1-methylcyclopentyl)methyl)amino)-3,4-dioxocyclobut-1-en-1-yl)amino)-3-hydroxy-N-methyl-N-(2,2,2-trifluoroethyl)picolinamide]	201.75	34.22	37.22	
CN(CC(F)F)C(=O)c1nccc(Nc2c(N[C@@H](c3ccc(F)cn3)C3(C)CCCC3)c(=O)c2=O)c1O [compound 071, (R)-N-(2,2-difluoroethyl)-4-((2-(((5-fluoropyridin-2-yl)(1-methylcyclopentyl)methyl)amino)-3,4-dioxocyclobut-1-en-1-yl)amino)-3-hydroxy-N-methylpicolinamide]	262.47	52.81	54.52	

The next lines start with results.

Liver microsome T1-2 (min) Human [1] [min]	Liver microsome T1-2 (min) Rat [2] [min]	Liver microsome T1-2 (min) Beagle dog [3] [min]	Compound	also measured
539.06	109.92	1205.26	Cc1cccnc1C(Nc1c(Nc2ccc(Cl)c(C(=O)N(C)C)c2O)c(=O)c1=O)C1(C)CC(F)(F)CO1 (centres unmarked) [compound 080, 6-chloro-3-((2-(((4,4-difluoro-2-methyltetrahydrofuran-2-yl)(3-methylpyridin-2-yl)methyl)amino)-3,4-dioxocyclobut-1-en-1-yl)amino)-2-hydroxy-N, N-dimethylbenzamide]	
	560.45		CC#CC(Nc1c(Nc2ccnc(C(=O)N(C)C)c2O)c(=O)c1=O)C1(C)CC(F)(F)CO1 (centres unmarked) [compound 112, 4-((2-((1-(4,4-difluoro-2-methyltetrahydrofuran-2-yl)but-2-yn-1-yl)amino)-3,4-dioxocyclobut-1-en-1-yl)amino)-3-hydroxy-N,N-dimethylpicolinamide]	IC50 (human CCR6): 165 nM
	109.49	2270.89	Cc1nccnc1[C@H](Nc1c(Nc2ccc(F)c(C(=O)N(C)C)c2O)c(=O)c1=O)C1(C)CCCC1 [compound 130, (R)-6-fluoro-2-hydroxy-N,N-dimethyl-3-((2-(((1-methylcyclopentyl)(3-methylpyrazin-2-yl)methyl)amino)-3,4-dioxocyclobut-1-en-1-yl)amino)benzamide]	bioavailability ([4]; 1 mg/kg PO vs 1 mg/kg IV, read-out: Oral bioavailability F (%)): 24%; AUC(0-t) ([4]; IV): 752 ng·h/mL; Cmax ([4]; IV): 5530 ng/mL; half-life ([4]; IV): 0.22 h; AUC(0-t) ([4]; PO): 181 ng·h/mL; Cmax ([4]; PO): 158 ng/mL; half-life ([4]; PO): 2.79 h

From patent EP4703354A1, “COMPOUND AS CCR6 ANTAGONIST, AND PHARMACEUTICAL COMPOSITION AND USE THEREOF” (Wuhan Createrna Science and Technology Co.,Ltd., priority 2023, dated 2024)
